Here are results for 1 molecule from patent US11684614B2, “Formulations of hydroxypyridonate actinide/lanthanide decorporation agents” (priority 2017, dated 2023).

The nature of data set [1]: GLP single oral dose pharmacokinetic assessment in beagle dogs. It counts as in vivo. On the procedure:
Pharmacokinetic parameters in beagle dogs after a single oral administration of formulated capsules was determined in a GLP study. A validated bioanalytical method was used to determine the plasma concentration in 3 dogs/sex after capsule administration of 37.5, 75, and 150 mg/kg (50, 100, and 200 μmol/kg) of clinically formulated 3,4,3-L1(1,2-HOPO). […] Similarly, mean exposure, based on AUCinf, was 1979±777 hr·ng/ml and 4741 hr·ng/ml for low-dose males and females, respectively; 4317±1721 hr·ng/ml and 8610 hr·ng/ml for mid-dose males and females, respectively; and 12022±5458 hr·ng/ml and 8305±1607 hr·ng/ml for high-dose males and females, respectively. […] The mean t½ was consistently short across dose groups and ranged from 0.5 to 0.9 hr.

Data set [2] has as its target T1, CYP2B6 (Homo sapiens, UniProt P20813).
T1 sequence (P20813 1-491): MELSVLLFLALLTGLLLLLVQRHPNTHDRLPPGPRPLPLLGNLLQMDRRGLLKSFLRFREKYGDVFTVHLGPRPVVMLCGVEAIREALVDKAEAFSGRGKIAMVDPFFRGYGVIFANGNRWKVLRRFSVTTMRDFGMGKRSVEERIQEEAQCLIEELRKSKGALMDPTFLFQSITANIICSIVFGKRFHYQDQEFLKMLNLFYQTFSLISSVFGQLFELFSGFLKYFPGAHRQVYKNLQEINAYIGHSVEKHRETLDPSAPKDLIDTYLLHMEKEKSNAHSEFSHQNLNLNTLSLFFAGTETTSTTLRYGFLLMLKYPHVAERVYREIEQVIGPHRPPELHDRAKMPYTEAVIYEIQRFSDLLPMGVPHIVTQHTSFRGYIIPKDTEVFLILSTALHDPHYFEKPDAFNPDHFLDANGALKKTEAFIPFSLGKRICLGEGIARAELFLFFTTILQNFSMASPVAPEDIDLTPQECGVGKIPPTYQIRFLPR
Briefly: CYP inhibition. The class given is in vitro ADME.

Data set [3] in a line: GLP single oral dose cardiovascular assessment in beagle dogs (electrocardiogram, blood pressure). The class given is in vivo. The note with it: 37.5, 75, or 150 mg/kg single oral dose. On the procedure:
Cardiovascular parameters in beagle dogs after a single oral administration of formulated capsules was determined in a GLP study
Electrocardiograms and blood pressure were evaluated from 3 male and 3 female beagle dogs per dose group (0, 37.5, 75, or 150 mg/kg) at pretest, 1 and 4 hours post-dose, and 7 days after a single oral dose of formulated material (TABLE 8.1). […] Instances of increased or decreased blood pressure (hypertension or hypotension) in various dogs were considered sporadic or due to stress, excitement, or struggling during the time of recording and not test article related. In summary, electrocardiogram and blood pressure assessments in beagle dogs raised no cardiovascular safety concerns.

A short description of data set [4]: 28-day oral gavage study in Sprague Dawley rats (SRI No. M512-07). The class given is in vivo.
A short description of data set [5]: Double-Sink PAMPA permeability assay with permeation enhancers (flux ratio). The note with it: compared with reference compound Ranitidine. It counts as in vitro ADME. Here is the method: The objective of the analytical study described in Part C of this report was to assess the feasibility of enhancing the permeability of the active pharmaceutical ingredient 3,4,3-L1(1,2-HOPO) using oral permeation enhancers. Evaluation was performed using an in vitro pK assay based on the Double-Sink™ PAMPA technology developed by pION, Inc.
The permeability enhancement study was performed in two stages. In the first stage (TABLE 10.1), 15 formulations were prepared and screened. The second stage (TABLE 10.2) was performed to refine the concentrations of the permeability enhancers that seemed to display permeability enhancement in the first screening. The screening conditions for both stages are listed below. The sample solutions were stored throughout the study in 20 mL clear scintillation glass vials with polypropylene cap and pulp foil liner, wrapped in aluminum foil.
• Test Solutions: Vehicles containing the permeation enhancers were prepared by weighing the adequate quantity of enhancer and dissolving it into 100 mL of purified water to reach the designated concentration. Test solutions were then prepared by weighing 10 mg of 3,4,3-L1(1,2-HOPO), dissolving it into 10 mL of each of the vehicles to reach a concentration of 1 mg/mL (purified water was used for the control solution). The final pH and clarity of each solution were recorded. […]
Background: PAMPA measures passive passage across an artificial lipid membrane.

By Tmax is commonly meant the time from dosing to the highest level. For the molecule `O=C(NCCCN(CCCCN(CCCNC(=O)c1cccc(=O)n1O)C(=O)c1cccc(=O)n1O)C(=O)c1cccc(=O)n1O)c1cccc(=O)n1O` [3,4,3-L1(1,2-HOPO)], the “mean AUCinf” value in data set [1] (high-dose (150 mg/kg) females) is 8305 ± 1607 ng·h/mL; in data set [1] (high-dose (150 mg/kg) males), 12022 ± 5458 ng·h/mL; in data set [1] (low-dose (37.5 mg/kg) females) it was 4741 ng·h/mL; in data set [1] (low-dose (37.5 mg/kg) males) it was 1979 ± 777 ng·h/mL; in data set [1] (mid-dose (75 mg/kg) females) it was 8610 ng·h/mL; in data set [1] (mid-dose (75 mg/kg) males), 4317 ± 1721 ng·h/mL. Further, in data set [1] (low and mid doses), the “mean Cmax and AUCinf, females compared with males” value was 1.7- to 2.4 fold. Moreover, the “mean t½” value in data set [1] (oral, across dose groups, dogs) is 30 to 54 min. Further, the time to peak (Tmax) in data set [1] (single oral capsule dose, 37.5, 75, and 150 mg/kg, dogs) is 36 to 66 min. In data set [2], the “inhibition of CYP2B6 activity” value is “did not inhibit”. Besides, the “electrocardiographic, heart rate, or blood pressure findings” value in data set [3] is recorded as “no electrocardiographic, heart rate, or blood pressure findings”. For the same molecule, the renal findings result in data set [4] (28 days of oral gavage) is given as “no renal findings”. Besides, the “soft stools or diarrhea” value in data set [4] (oral gavage 7.7-76.9 mg/kg (10-102 μmol/kg) for 28 days) was “not observed”. Besides, in data set [5], the “permeability (PAMPA)” value is “very low permeability”.
